{"source": "the supplement of paper PMC10307832", "test_in_all_cases": "relative viability (nuclei count vs DMSO), 5 days (fraction); higher = more cells survive", "key": {"[1]": {"compound": "CO[C@@H]1[C@H](N(C)C(=O)c2ccccc2)C[C@H]2O[C@]1(C)n1c3ccccc3c3c4c(c5c6ccccc6n2c5c31)C(=O)NC4 [Midostaurin] + CCNC(=O)c1noc(-c2cc(C(C)C)c(O)cc2O)c1-c1ccc(CN2CCOCC2)cc1 [Luminespib] (partner 0.01 µM)", "how_it_was_run": "(§1)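 Nuclei were stained with Hoechst during a one-step fixation (final 0.05% Triton X-100, 1% formaldehyde, 1 ug/ml Hoechst) carried out 5 days after dosing, then counted on 4× images. The cells, lung cancer lines in 1536-well plates, had been dosed by pin tool the day after seeding with one drug alone or a fixed anchor-drug dose plus five library-drug doses (not always all listed) in √10 steps. Relative viability is the nuclei count in treated wells divided by that in vehicle wells, and each value is the median of duplicate plates.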"}, "[2]": {"compound": "COc1cc(-c2nn([C@H]3CC[C@H](N4CCN(C(C)=O)CC4)CC3)c3ncnc(N)c23)ccc1NC(=O)c1cc2ccccc2n1C + O=C(c1cc(Cc2n[nH]c(=O)c3ccccc23)ccc1F)N1CCN(C(=O)C2CC2)CC1 [Olaparib] (partner 8 µM)", "how_it_was_run": "as §1"}, "[3]": {"compound": "COc1cc(-c2nn([C@H]3CC[C@H](N4CCN(C(C)=O)CC4)CC3)c3ncnc(N)c23)ccc1NC(=O)c1cc2ccccc2n1C + CS(=O)(=O)CCNCc1ccc(-c2ccc3ncnc(Nc4ccc(OCc5cccc(F)c5)c(Cl)c4)c3c2)o1 [Lapatinib] (partner 2 µM)", "how_it_was_run": "as §1"}, "[4]": {"compound": "CO[C@@H]1[C@H](N(C)C(=O)c2ccccc2)C[C@H]2O[C@]1(C)n1c3ccccc3c3c4c(c5c6ccccc6n2c5c31)C(=O)NC4 [Midostaurin] + CC(=O)Nc1cccc(-n2c(=O)n(C3CC3)c(=O)c3c(Nc4ccc(I)cc4F)n(C)c(=O)c(C)c32)c1 [Trametinib] (partner 0.02 µM)", "how_it_was_run": "as §1"}, "[5]": {"compound": "CO[C@@H]1[C@H](N(C)C(=O)c2ccccc2)C[C@H]2O[C@]1(C)n1c3ccccc3c3c4c(c5c6ccccc6n2c5c31)C(=O)NC4 [Midostaurin] + O=C(CCCCCCC(=O)Nc1ccccc1)NO [Vorinostat] (partner 1 µM)", "how_it_was_run": "as §1"}}}
{"cell line": "UMC-11", "values": [{"measurement": "relative viability", "setting": "[1]; first compound 0.01 µM", "result": 1.02}, {"measurement": "relative viability", "setting": "[1]; first compound 0.03162 µM", "result": 0.849}, {"measurement": "relative viability", "setting": "[1]; first compound 0.1 µM", "result": 0.932}, {"measurement": "relative viability", "setting": "[1]; first compound 0.3162 µM", "result": 0.463}, {"measurement": "relative viability", "setting": "[2]; first compound 0.0128 µM", "result": 0.388}, {"measurement": "relative viability", "setting": "[2]; first compound 0.04048 µM", "result": 0.464}, {"measurement": "relative viability", "setting": "[2]; first compound 0.128 µM", "result": 0.342}, {"measurement": "relative viability", "setting": "[2]; first compound 1.28 µM", "result": 0.362}, {"measurement": "relative viability", "setting": "[3]; first compound 0.0128 µM", "result": 1.04}, {"measurement": "relative viability", "setting": "[3]; first compound 0.04048 µM", "result": 0.978}, {"measurement": "relative viability", "setting": "[3]; first compound 0.128 µM", "result": 0.712}, {"measurement": "relative viability", "setting": "[3]; first compound 1.28 µM", "result": 0.739}, {"measurement": "relative viability", "setting": "[4]; first compound 0.01 µM", "result": 0.698}, {"measurement": "relative viability", "setting": "[4]; first compound 0.03162 µM", "result": 0.656}, {"measurement": "relative viability", "setting": "[4]; first compound 0.1 µM", "result": 0.691}, {"measurement": "relative viability", "setting": "[4]; first compound 0.3162 µM", "result": 0.562}, {"measurement": "relative viability", "setting": "[5]; first compound 0.01 µM", "result": 0.424}, {"measurement": "relative viability", "setting": "[5]; first compound 0.03162 µM", "result": 0.445}, {"measurement": "relative viability", "setting": "[5]; first compound 0.1 µM", "result": 0.242}, {"measurement": "relative viability", "setting": "[5]; first compound 0.3162 µM", "result": 0.187}]}
